Columns and labels:
RPMI-8226 tumors = experiment: RPMI-8226 multiple myeloma xenograft in NSG mice; type: in vivo, mouse
Excerpt: (§1) RPMI-8226 human multiple myeloma cells (ATCC #CCL-155, Manassas, Va.) were maintained in RPMI-1640 (Lonza; Walkersville, Md.) supplemented with 10% Fetal Bovine Serum (FBS; Omega Scientific; Tarzana, Calif.) and 1% Penicillin/Streptomycin (Corning, Manassas, Va.) within a 5% CO2 atmosphere. Cultures were expanded in tissue culture flasks.
(§2) Female NSG (NOD-Cg-Prkdc^scidI12rg^tm1Wjl/SzJ) were obtained from Jackson Laboratory (Bar Harbor, Me.) at 5-6 weeks of age. Mice were acclimated prior to handling and housed in microisolator cages (Lab Products, Seaford, Del.) under specific pathogen-free conditions. Mice were fed Teklad Global Diet® 2920x irradiated laboratory animal diet (Envigo, Formerly Harlan; Indianapolis, Ind.) and provided autoclaved water ad libitum. All procedures were carried out under Institutional Animal Care and Use guidelines.
Female NSG mice were inoculated subcutaneously in the right flank with 0.1 mL of a 30% RPMI/70% Matrigel™ (BD Biosciences; Bedford, Mass.) mixture containing a suspension of 1×10^7 RPMI-8226 tumor cells.
(§3) The mean TS of each group was calculated and reported.
Differences in Day 48 tumor volumes were confirmed using a one-way ANOVA, unpaired, parametric with the Tukey's Multiple Comparison test with Welch's correction. […]

MM.1S tumors [1] = experiment: MM.1S multiple myeloma xenograft, combination with bortezomib; type: in vivo, mouse
Excerpt: as §1, with “MM.1S” for “RPMI-8226”, “#CRL-2974,” for “#CCL-155,”
as §2, §3
All statistical analyses in the xenograft study were performed with Prism GraphPad® software.

Jurkat T ALL cell line = experiment: ATP release; type: cell-based, human; settings: mAb 10 μg/ml or mitoxantrone 1 μM, 24 hours
Experimental: Release of ATP from the tumor cell is determined by quantitative bioluminescence assay as described by the manufacturer (Molecular Probes; Catalogue #A22066).
The humanized antibodies (VLX4hum_01 IgG4PE, VLX4hum_07 IgG4PE, VLX8hum_11 IgG4PE, VLX9hum_06 IgG2, VLX9hum_08 IgG2 and VLX9hum_03) as disclosed herein, purified from transient transfections in CHO cells as described above, as well as the control chimeric antibody, were added at a final concentration of 10 μg/ml. As a positive control for ATP release, cells were treated with 1 μM of chemotherapeutic anthracycline mitoxantrone. The cells were incubated at 37° C. for 24 hours, after which the cell-free supernatant was collected and stored at −80° C. After all samples have been collected, 10 μl of each sample was tested by the ATP determination kit as described above. […] Results are presented as means SEM and analyzed for statistical significance using ANOVA in GraphPad Prism 6.

MM.1S tumors [2] = experiment: MM.1S xenograft in NOD-SCID mice, combination with lenalidomide or pomalidomide; type: in vivo, mouse; settings: for complete tumor regression: N=9/group; for tumor growth inhibition (TGI): mAb 25 mg/kg IP weekly
Excerpt: MM.1S human multiple myeloma cells (ATCC #CRL-2974, Manassas, Va.) were maintained in RPMI-1640 (Lonza; Walkersville, Md.) supplemented with 10% Fetal Bovine Serum (FBS; Omega Scientific; Tarzana, Calif.) and 1% Penicillin/Streptomycin (Corning, Manassas, Va.) within a 5% CO2 atmosphere. Cultures were expanded in tissue culture flasks. Female NOD-SCID (NOD.CB17-Prkdc^scid/J) mice were obtained from Jackson Laboratory (Bar Harbor, Me.) at 5-6 weeks of age. Mice were acclimated prior to handling and housed in microisolator cages (Lab Products, Seaford, Del.) under specific pathogen-free conditions. Mice were fed Teklad Global Diet® 2920x irradiated laboratory animal diet (Envigo, Formerly Harlan; Indianapolis, Ind.) and provided autoclaved water ad libitum. All procedures were carried out under Institutional Animal Care and Use guidelines.
Female NOD-SCID mice were inoculated subcutaneously in the right flank with 0.1 mL of a 50% RPMI-1640/50% Matrigel™ (BD Biosciences; Bedford, Mass.) mixture containing a suspension of 5×10^6 MM.1S tumor cells. When tumors reached volumes of approximately 50-100 mm^3, mice were randomized. The test articles, human IgG2 (hIgG2), anti-CD47 mAb (VLX9hum_06 IgG2) were administered by intraperitoneal (IP) injection and lenalidomide or pomalidomide (LC Labs, Woburn, Mass.) were administered by oral gavage (PO). hIgG2 (25 mg/kg) or an anti-CD47 mAb VLX9hum_06 IgG2 (25 mg/kg) were administered weekly for 5 weeks, while lenalidomide (25 mg/kg) or pomalidomide (10 mg/kg) were administered on 4 successive days, with 3 days off, weekly for 5 weeks.
Mean tumor growth inhibition (TGI) was calculated at Day 24 (the final day all mice were on study) utilizing the following formula.
All statistical analyses in the xenograft study were performed with Prism GraphPad® software. Differences in Day 24 tumor volumes were confirmed using a two-way ANOVA, unpaired, parametric with the Tukey's Multiple Comparison test with Welch's correction.

MM.1S tumors [3] = experiment: MM.1S multiple myeloma xenograft, combination with daratumumab; type: in vivo, mouse
Experimental: as §1, with “The anti-tumor properties of a humanized anti-CD47 antibody (VLX9hum_06 IgG2) and in combination with anti-CD38 monoclonal antibody daratumumab which reduce tumor burden in a xenograft MM.1S multiple myeloma NSG mouse model were evaluated MM.1S” for “RPMI-8226”, “#CRL-2974,” for “#CCL-155,”
as §2
Female NSG mice were inoculated subcutaneously in the right flank with 0.1 mL of a 30% RPMI/70% Matrigel™ (BD Biosciences; Bedford, Mass.) mixture containing a suspension of 5×10^6 MM.1S tumor cells. […]
Mean tumor growth inhibition (TGI) was calculated at Day 20 utilizing the following formula. […]

OV90 tumors = experiment: OV90 ovarian carcinoma xenograft in NSG mice; type: in vivo, mouse; settings: OV90, Day 52; antibody 10 mg/kg IP QD5×6, cisplatin 5 mg/kg, paclitaxel 20 mg/kg
Experimental: Female NSG mice (NOD-Cg-PrkdcscidI12rgtm1Wjl/SzJ, Jackson Laboratories) were inoculated subcutaneously in the right flank with 0.1 mL of a 30% RPMI/70% Matrigel™ (BD Biosciences; Bedford, Mass.) mixture containing a suspension of 5×10^6 OV90 ovarian carcinoma cells (ATCC). Digital calipers were used to measure width and length diameters of the tumor. Tumor volumes were calculated utilizing the formula: tumor volume (mm^3)=(a×b^2/2) where ‘b’ is the smallest diameter and ‘a’ is the largest diameter. Mice with palpable tumor volumes of 50-100 mm^3 were randomized into 10 mice/group. […] Tumor volumes and body weights were recorded twice weekly.

SNU-1 tumors = experiment: SNU-1 gastric carcinoma xenograft in NSG mice; type: in vivo, mouse; settings: antibody 25 mg/kg IP Q7D×5, cisplatin 3 mg/kg Q7D×4
Experimental: Female NSG mice (NOD-Cg-PrkdcscidI12rgtm1Wjl/SzJ, Jackson Laboratories) were inoculated subcutaneously in the right flank with 0.1 mL of a 30% RPMI/70% Matrigel™ (BD Biosciences; Bedford, Mass.) mixture containing a suspension of 5×10^6 SNU-1 gastric carcinoma cells (ATCC). Eight days following inoculation, digital calipers were used to measure width and length diameters of the tumor. Tumor volumes were calculated utilizing the formula: tumor volume (mm^3)=(a×b^2/2) where ‘b’ is the smallest diameter and ‘a’ is the largest diameter. Mice with palpable tumor volumes of 50-100 mm^3 were randomized into 10 mice/group and administered anti-CD47 mAb VLX9hum_06 IgG2, cisplatin, control IgG2, or a combination of anti-CD47 mAb VLX9hum_06 IgG2 with cisplatin. Mice were treated with 25 mg/kg of antibody once a week for 5 weeks (Q7D×5) by intraperitoneal injection (IP) and/or with 3 mg/kg of cisplatin once weekly for 4 weeks (Q7D×4). Tumor volumes and body weights were recorded twice weekly.
Mean tumor growth inhibition (TGI) was calculated utilizing the following formula.
Significant differences in tumor volume were confirmed using a two-way ANOVA, unpaired, parametric with the Tukey's Multiple Comparison test.

CC(C)C[C@H](NC(=O)[C@H](Cc1ccccc1)NC(=O)c1cnccn1)B(O)O [bortezomib]
median survival (RPMI-8226 tumors; RPMI-8226, 1 mg/kg): 78 days
tumor growth inhibition (TGI) (RPMI-8226 tumors; RPMI-8226, Day 48, 1 mg/kg IV Day 1, 4, 12): 96%
median survival (MM.1S tumors [1]): 35 days
tumor growth inhibition (TGI) (MM.1S tumors [1]; Day 20, mAb 25 mg/kg IP weekly, bortezomib 0.75 then 0.5 mg/kg IV): 91.8%

O=C1c2c(O)ccc(O)c2C(=O)c2c(NCCNCCO)ccc(NCCNCCO)c21 [mitoxantrone]
amount of released ATP (Jurkat T ALL cell line): did not (ns)

Nc1cccc2c1CN(C1CCC(=O)NC1=O)C2=O (centres unmarked) [lenalidomide]
complete tumor regression (MM.1S tumors [2]; FIG. 91A): no tumor regressions
tumor growth inhibition (TGI) (MM.1S tumors [2]; day 24, FIG. 91A, lenalidomide 25 mg/kg PO): 48%

daratumumab: anti-CD38 monoclonal antibody
median survival (MM.1S tumors [3]): 29 days
tumor growth inhibition (TGI) (MM.1S tumors [3]; Day 20, mAb 25 mg/kg weekly, daratumumab 15 mg/kg twice weekly): 54%

Nc1cccc2c1C(=O)N(C1CCC(=O)NC1=O)C2=O (centres unmarked) [pomalidomide]
complete tumor regression (MM.1S tumors [2]; FIG. 91B): no tumor regressions
tumor growth inhibition (TGI) (MM.1S tumors [2]; day 24, FIG. 91B, pomalidomide 10 mg/kg PO): 23%

CC(=O)O[C@H]1C(=O)[C@@]2(C)[C@H]([C@H](OC(=O)c3ccccc3)[C@]3(O)C[C@H](OC(=O)[C@H](O)[C@@H](NC(=O)c4ccccc4)c4ccccc4)C(C)=C1C3(C)C)[C@]1(OC(C)=O)CO[C@@H]1C[C@@H]2O [paclitaxel]
tumor growth inhibition (TGI) (OV90 tumors): 32.1%

N.N.[Cl][Pt][Cl] [cisplatin]
tumor growth inhibition (TGI) (SNU-1 tumors): 39.7%
tumor growth inhibition (TGI) (OV90 tumors): 53.1%

— patent US20220313819A1, “COMBINATION THERAPY FOR THE TREATMENT OF SOLID AND HEMATOLOGICAL CANCERS” (Arch Oncology, Inc., priority 2019, published 2022)
